Reference: patent publication US8506950B2, “Degradable microcapsules” (ETH Zurich, priority 2008, dated 2013)

Tests used:
[1] = target: T1, bovine luteinizing hormone receptor (bLHR) (Bos taurus, UniProt Q28005); assay: Intracellular cAMP in HEK293T cells transiently expressing bLHR, induced by bLH; assay type: cell-based; conditions: 500 ng/ml bLH, 1 h post-induction, bLHR expressed, vs non-induced cells
T1 construct: Full-length cDNAs encoding the LHRs of rat (r) and bovine (b) origin; expressed in transfected cells; host or cells: HEK293T, transient transfection with pcDNA3.1-bLHR
Description: HEK293T cells were transiently transfected for constitutive bLHR or rLHR expression. 48 hours post-transfection the cells were induced by the addition of 500 ng/ml bLH. The intracellular cAMP-levels were determined 1 h post-induction. […] (□) no bLH, (▪) 500 ng/mL bLH.
Full-length cDNAs encoding the LHRs of rat (r) and bovine (b) origin were cloned under control of the strong constitutive human cytomegalovirus promoter (PCMV) as previously described [Kawate N, Tamada H, Inaba T, Sawada T, Journal of Reproduction and Development 2002; 48:8; Ulaner G A, Chuang J, Lin W, Woodbury D, Myers R V, Moyle W R, J Endocrinol 1999; 163:289-97]. The expression vectors were transiently transfected into HEK293T cells. The functionality of the expressed LHRs was determined 48 hours post-transfection by assaying the intracellular cAMP increase in response to the presence of bLH (FIG. 7). […] However, when the rLHR was expressed the detected cAMP-level increased to 29-fold level of the non-induced cells. […]
(§1) The intracellular cAMP production of cells was quantified using the cAMP Fluorescence Polarization (FP) Biotrak Immunoassay System (GE Healthcare Bio-Sciences GmbH, Otelfingen, Switzerland, Cat No. RPN3595) according to the manufacturer's protocol. The expression of firefly luciferase was determined with the Tropix Luciferase Assay Kit (Applied Biosystems, Bedford, USA, Cat No. BC100L). […]

rLHR = rLHR (Rattus norvegicus, UniProt P16235); assay: Reporter gene expression (SEAP, eYFP) of CS/pDADMAC-encapsulated CK04 cells; assay type: cell-based; set-up: Full-length cDNAs encoding the LHRs of rat (r) and bovine (b) origin; expressed in transfected cells; host or cells: CK04: HEK293T stably cotransfected with pLEN-rLHR and pZeoSV2(+), clone 6
Source text: The SEAP production increased over time in the presence but not the absence of bLH.
To determine whether bLH can penetrate microcapsules and activate the gene expression of encapsulated cells, CK04 cells were transiently transfected with a vector encoding PCRE controlled eYFP expression (pCK91, PCRE-eYFP-pA). After transfection the cells were encapsulated in CS/pDADMAC-microcapsules and cultured in the absence or presence of bLH. […] In contrast in the absence of bLH the cells remained non-fluorescent. […] It was also investigated if the activation of encapsulated cells is bLH dose- and time-dependent. Therefore, CK04 cells transiently transfected for PCRE dependent SEAP expression (pCK62, PCRE-SEAP-PA) were encapsulated, the capsules cultured in the absence or presence of 100 ng/ml or 500 ng/ml bLH and the SEAP expression measured in 12 hours intervals (FIG. 11). […] 60 hours post-induction a 2.3±0.2 fold higher SEAP expression for LH-surge doses of bLH compared to 100 ng/ml hormone was measured. […]
as §1

Sequence of rLHR (P16235 27-700): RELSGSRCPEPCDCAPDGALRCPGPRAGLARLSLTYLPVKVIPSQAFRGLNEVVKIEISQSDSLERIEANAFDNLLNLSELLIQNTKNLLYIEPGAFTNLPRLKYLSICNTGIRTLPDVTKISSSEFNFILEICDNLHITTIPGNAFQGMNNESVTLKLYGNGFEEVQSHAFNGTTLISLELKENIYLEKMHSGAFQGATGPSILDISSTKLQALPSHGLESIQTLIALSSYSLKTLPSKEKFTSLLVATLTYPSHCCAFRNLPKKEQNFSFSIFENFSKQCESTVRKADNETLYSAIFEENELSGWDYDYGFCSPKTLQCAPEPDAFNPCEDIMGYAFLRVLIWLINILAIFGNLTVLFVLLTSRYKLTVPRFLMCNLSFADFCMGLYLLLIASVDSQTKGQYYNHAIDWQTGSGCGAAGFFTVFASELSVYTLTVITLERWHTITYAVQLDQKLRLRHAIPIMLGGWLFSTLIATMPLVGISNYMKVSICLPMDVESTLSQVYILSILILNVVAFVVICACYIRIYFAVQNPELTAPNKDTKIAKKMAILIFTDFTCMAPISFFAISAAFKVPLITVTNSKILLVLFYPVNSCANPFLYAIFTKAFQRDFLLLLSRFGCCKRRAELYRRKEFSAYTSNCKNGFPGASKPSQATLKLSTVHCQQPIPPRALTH
T1 sequence (Q28005 27-701): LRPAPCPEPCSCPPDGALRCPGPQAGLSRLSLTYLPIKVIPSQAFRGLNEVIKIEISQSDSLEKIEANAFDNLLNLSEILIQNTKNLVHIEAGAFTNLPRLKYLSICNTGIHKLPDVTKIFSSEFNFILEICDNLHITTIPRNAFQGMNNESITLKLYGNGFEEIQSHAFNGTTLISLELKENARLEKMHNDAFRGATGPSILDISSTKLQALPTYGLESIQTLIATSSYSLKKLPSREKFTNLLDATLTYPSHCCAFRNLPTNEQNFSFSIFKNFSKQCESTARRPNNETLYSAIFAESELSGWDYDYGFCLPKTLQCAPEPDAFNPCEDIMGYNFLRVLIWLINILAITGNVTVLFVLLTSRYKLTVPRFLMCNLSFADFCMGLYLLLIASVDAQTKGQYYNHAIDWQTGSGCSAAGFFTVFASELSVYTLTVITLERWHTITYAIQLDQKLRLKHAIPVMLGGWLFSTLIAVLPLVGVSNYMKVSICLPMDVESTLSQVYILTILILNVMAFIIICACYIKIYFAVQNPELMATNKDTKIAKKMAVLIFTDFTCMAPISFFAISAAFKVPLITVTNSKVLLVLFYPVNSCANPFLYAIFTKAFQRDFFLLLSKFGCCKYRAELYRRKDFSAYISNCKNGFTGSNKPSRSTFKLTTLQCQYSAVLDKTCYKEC

## bovine luteinizing hormone [bLH]
[1]
  increase in intracellular cAMP: 12 fold
rLHR; encapsulated CK04, pCK62, 60 hours post-induction, 500 ng/ml vs 100 ng/ml
  SEAP expression for LH-surge doses of bLH compared to 100 ng/ml: 2.3±0.2 fold
rLHR; encapsulated CK04, pCK91, bLH present
  eYFP expression of encapsulated cells: strongly induced
